Experimental findings from patent publication US10273243B2, “4-phenylpiperidines, their preparation and use” (The Trustees of Columbia University in the City of New York, priority 2013, dated 2019) are described below.

Where a name gives a salt, the structure may show the parent alone.

In turn, `COc1ccc(C(=O)N2CCC(c3ccccc3C(F)(F)F)CC2)nn1` [Example 86, (6-Methoxypyridazin-3-yl)(4-(2-(trifluoromethyl)phenyl)piperidin-1-yl)methanone] displayed a melting point of 122 to 125 °C.
For `NC(=O)c1cccc(C(=O)N2CCC(c3ccccc3C(F)(F)F)CC2)c1` [Example 93, 3-(4-(2-(Trifluoromethyl)phenyl)piperidine-1-carbonyl)benzamide], the melting point is 192 to 194 °C.
Next, `O=C(c1ccc2nccn2n1)N1CCC(c2ccccc2C(F)(F)F)CC1` [Example 81, Imidazo[1,2-b]pyridazin-6-yl(4-(2-(trifluoromethyl)phenyl)piperidin-1-yl)methanone]: 152 to 155 °C.
In turn, `CN1CCCc2[nH]nc(C(=O)N3CCC(c4ccccc4C(F)(F)F)CC3)c2C1` [Example 10, (5-Methyl-1,4,5,6,7,8-hexahydropyrazolo[4,3-c]azepin-3-yl)(4-(2-(trifluoromethyl)phenyl)piperidin-1-yl)methanone] yielded a melting point of 75 to 85 °C.
Consider `CCN1CCc2[nH]nc(C(=O)N3CCC(c4ccccc4C(F)(F)F)CC3)c2C1` [Example 43, (5-Ethyl-4,5,6,7-tetrahydro-1H-pyrazolo[4,3-c]pyridin-3-yl)(4-(2-(trifluoromethyl)phenyl)piperidin-1-yl)methanone], for which the melting point fell in the range of 159 to 162 °C.
The compound `O=C(c1cccnn1)N1CCC(c2ccccc2C(F)(F)F)CC1` [Example 82, Pyridazin-3-yl(4-(2-(trifluoromethyl)phenyl)piperidin-1-yl)methanone] yielded a melting point of 125 to 127 °C.
Turning to `CCS(=O)(=O)N1CCc2[nH]nc(C(=O)N3CCC(c4ccccc4C(F)(F)F)CC3)c2C1` [Example 37, (5-(Ethylsulfonyl)-4,5,6,7-tetrahydro-1H-pyrazolo[4,3-c]pyridin-3-yl)(4-(2-(trifluoromethyl)phenyl)piperidin-1-yl)methanone], the melting point was 187 to 189 °C.
Then `CC(C)S(=O)(=O)N1CCc2[nH]nc(C(=O)N3CCC(c4ccccc4C(F)(F)F)CC3)c2C1` [Example 39, (5-(Isopropylsulfonyl)-4,5,6,7-tetrahydro-1H-pyrazolo[4,3-c]pyridin-3-yl)(4-(2-(trifluoromethyl)phenyl)piperidin-1-yl)methanone], with 199 to 201 °C; and `O=C(c1ccnnc1)N1CCC(c2ccccc2C(F)(F)F)CC1` [Example 80, Pyridazin-4-yl(4-(2-(trifluoromethyl)phenyl)piperidin-1-yl)methanone], with 159 to 162 °C; and `O=C(c1n[nH]c2ncccc12)N1CCC(c2ccccc2C(F)(F)F)CC1` [Example 30, (1H-pyrazolo[3,4-b]pyridin-3-yl)(4-(2-(trifluoromethyl)phenyl)piperidin-1-yl)methanone], with 202 to 205 °C.
`Cn1nc(C(=O)N2CCC(c3ccccc3C(F)(F)F)CC2)c2c1CC(C)(C)OC2` [Example 2, (4-(2-(Trifluoromethyl)phenyl)piperidin-1-yl)(1,6,6-trimethyl-1,4,6,7-tetrahydropyrano[4,3-c]pyrazol-3-yl)methanone] displayed a melting point of 58 to 64 °C.
`Cc1cnc2cc(C(=O)N3CCC(c4ccccc4C(F)(F)F)CC3)[nH]c2c1` [Example 70, (6-Methyl-1H-pyrrolo[3,2-b]pyridin-2-yl)(4-(2-(trifluoromethyl)phenyl)piperidin-1-yl)methanone]: the melting point lay within 254 to 258 °C.
As to `Cn1nc(C(=O)N2CCC(c3ccccc3C(F)(F)F)CC2)c2c1CCOC2` [Example 1, (1-Methyl-1,4,6,7-tetrahydropyrano[4,3-c]pyrazol-3-yl)(4-(2-(trifluoromethyl)phenyl)piperidin-1-yl)methanone], the melting point lay in the range of 44 to 46 °C.
Turning to `NC(=O)c1ccc(C(=O)N2CCC(c3ccccc3C(F)(F)F)CC2)cc1` [Example 92, 4-(4-(2-(Trifluoromethyl)phenyl)piperidine-1-carbonyl)benzamide], the melting point lay in the range of 188 to 190 °C.
The compound `Cn1nc(C(=O)N2CCC(c3ccccc3C(F)(F)F)CC2)c2c1CCS(=O)(=O)C2` [Example 3, (1-methyl-5,5-dioxido-1,4,6,7-tetrahydrothiopyrano[4,3-c]pyrazol-3-yl)(4-(2-(trifluoromethyl)phenyl)piperidin-1-yl)methanone] had a melting point of 232 to 234 °C.
The compound `O=C(c1nc2ncccc2[nH]1)N1CCC(c2ccccc2C(F)(F)F)CC1` [Example 71, (1H-Imidazo[4,5-b]pyridin-2-yl)(4-(2-(trifluoromethyl)phenyl)piperidin-1-yl)methanone] returned a melting point of 249 to 251 °C.
Consider `CCC(=O)N1CCc2c(C(=O)N3CCC(c4ccccc4C(F)(F)F)CC3)n[nH]c2C1` [Example 49, 1-(3-(4-(2-(Trifluoromethyl)phenyl)piperidine-1-carbonyl)-4,5-dihydro-1H-pyrazolo[3,4-c]pyridin-6(7H)-yl)propan-1-one], for which the melting point fell in the range of 162 to 164 °C.
Consider `O=C(c1n[nH]c2c1CCNC2)N1CCC(c2ccccc2C(F)(F)F)CC1` (as salt: hydrochloride) [Example 16, (4,5,6,7-Tetrahydro-1H-pyrazolo[3,4-c]pyridin-3-yl)(4-(2-(trifluoromethyl)phenyl)piperidin-1-yl)methanone Hydrochloride], for which the melting point lay within 272 to 278 °C.
Compound `NS(=O)(=O)Oc1ccccc1CC(=O)N1CCC(c2ccccc2C(F)(F)F)CC1` [Example 102, 2-(2-Oxo-2-(4-(2-(trifluoromethyl)phenyl)piperidin-1-yl)ethyl)phenylsulfamate] had a melting point of 170 to 173 °C.
Compound `CC(=O)N1CCc2[nH]nc(C(=O)N3CCC(c4ccccc4C(F)(F)F)CC3)c2C1` [Example 27, 1-(3-(4-(2-(Trifluoromethyl)phenyl)piperidine-1-carbonyl)-6,7-dihydro-1H-pyrazolo[4,3-c]pyridin-5(4H)-yl)ethanone] displayed a melting point of 208 to 211 °C.
Turning to `CC(C)CS(=O)(=O)N1CCc2[nH]nc(C(=O)N3CCC(c4ccccc4C(F)(F)F)CC3)c2C1` [Example 38, (5-(Isobutylsulfonyl)-4,5,6,7-tetrahydro-1H-pyrazolo[4,3-c]pyridin-3-yl)(4-(2-(trifluoromethyl)phenyl)piperidin-1-yl)methanone], the melting point fell in the range of 178 to 180 °C.
For `CC(C)S(=O)(=O)N1CCc2c(C(=O)N3CCC(c4ccccc4C(F)(F)F)CC3)n[nH]c2C1` [Example 51, (6-(Isopropylsulfonyl)-4,5,6,7-tetrahydro-1H-pyrazolo[3,4-c]pyridin-3-yl)(4-(2-(trifluoromethyl)phenyl)piperidin-1-yl)methanone], the melting point fell in the range of 220 to 222 °C.
The compound `O=C(c1n[nH]c2c1CNCC2)N1CCC(c2ccccc2C(F)(F)F)CC1` [Example 26, (4,5,6,7-Tetrahydro-1H-pyrazolo[4,3-c]pyridin-3-yl)(4-(2-(trifluoromethyl)phenyl)piperidin-1-yl)methanone] showed a melting point of 270 to 272 °C.
Then `CS(=O)(=O)N1CCc2c(C(=O)N3CCC(c4ccccc4C(F)(F)F)CC3)n[nH]c2C1` [Example 18, (6-(Methylsulfonyl)-4,5,6,7-tetrahydro-1H-pyrazolo[3,4-c]pyridin-3-yl)(4-(2-(trifluoromethyl)phenyl)piperidin-1-yl)methanone], with 242 to 245 °C; and `O=C(c1cc2ncc(N3CCOCC3)cc2[nH]1)N1CCC(c2ccccc2C(F)(F)F)CC1` [Example 76, (6-Morpholino-1H-pyrrolo[3,2-b]pyridin-2-yl)(4-(2-(trifluoromethyl)phenyl)piperidin-1-yl)methanone], with 268 to 272 °C (dec.).
With `CC(C)C(=O)N1CCc2c(C(=O)N3CCC(c4ccccc4C(F)(F)F)CC3)n[nH]c2C1` [Example 52, 2-Methyl-1-(3-(4-(2-(trifluoromethyl)phenyl)piperidine-1-carbonyl)-4,5-dihydro-1H-pyrazolo[3,4-c]pyridin-6(7H)-yl)propan-1-one], the melting point is 200 to 203 °C.
Consider `CC(C)CC(=O)N1Cc2[nH]nc(C(=O)N3CCC(c4ccccc4C(F)(F)F)CC3)c2C1` [Example 55, 3-Methyl-1-(3-(4-(2-(trifluoromethyl)phenyl)piperidine-1-carbonyl)pyrrolo[3,4-c]pyrazol-5(1H,4H,6H)-yl)butan-1-one], for which the melting point lay in the range of 200 to 203 °C.
Then `CC(C)C(=O)N1Cc2[nH]nc(C(=O)N3CCC(c4ccccc4C(F)(F)F)CC3)c2C1` [Example 54], with 192 to 195 °C; and `CC(=O)N1CCCC1C(=O)N1CCC(c2ccccc2C(C)(C)C)CC1` (stereo not shown) [Example 97, 1-(2-(4-(2-(Tert-butyl)phenyl)piperidine-1-carbonyl)pyrrolidin-1-yl)ethanone], with 50 to 60 °C.
`CC(C)CN1CCc2[nH]nc(C(=O)N3CCC(c4ccccc4C(F)(F)F)CC3)c2C1` [Example 45, (5-Isobutyl-4,5,6,7-tetrahydro-1H-pyrazolo[4,3-c]pyridin-3-yl)(4-(2-(trifluoromethyl)phenyl)piperidin-1-yl)methanone] showed a melting point of 105 to 107 °C.
Consider `O=C(c1n[nH]c2c1CN(C1COC1)CC2)N1CCC(c2ccccc2C(F)(F)F)CC1` [Example 46, (5-(Oxetan-3-yl)-4,5,6,7-tetrahydro-1H-pyrazolo[4,3-c]pyridin-3-yl)(4-(2-(trifluoromethyl)phenyl)piperidin-1-yl)methanone], for which the melting point was in the range of 107 to 110 °C.
`O=C(c1ccn[nH]1)N1CCC(c2ccccc2C(F)(F)F)CC1` [Example 90, (1H-pyrazol-5-yl)(4-(2-(trifluoromethyl)phenyl)piperidin-1-yl)methanone] registered a melting point of 167 to 170 °C.
Next, `CC(=O)N1Cc2[nH]nc(C(=O)N3CCC(c4ccccc4C(F)(F)F)CC3)c2C1` [Example 7, 1-(3-(4-(2-(Trifluoromethyl)phenyl)piperidine-1-carbonyl)pyrrolo[3,4-c]pyrazol-5(1H,4H,6H)-yl)ethanone]: 186 to 192 °C.
Then `Cc1nnsc1C(=O)N1CCC(c2ccccc2C(F)(F)F)CC1` [Example 84, (4-Methyl-1,2,3-thiadiazol-5-yl)(4-(2-(trifluoromethyl)phenyl)piperidin-1-yl)methanone], with 141 to 143 °C.
